According to patent US20200087284A1, “[4-(PHENYLSULFONYL)PIPERAZIN-1-YL](1H-1, 2, 3-TRIAZOL-4-YL)METHANONES” (priority 2016, published 2020):

Biological target: T1, recombinant human AKR1C3 (Homo sapiens, UniProt P42330)
T1 construct: GST (cleaved yes); made in house; host or cells: E. coli
T1 sequence (P42330 1-323): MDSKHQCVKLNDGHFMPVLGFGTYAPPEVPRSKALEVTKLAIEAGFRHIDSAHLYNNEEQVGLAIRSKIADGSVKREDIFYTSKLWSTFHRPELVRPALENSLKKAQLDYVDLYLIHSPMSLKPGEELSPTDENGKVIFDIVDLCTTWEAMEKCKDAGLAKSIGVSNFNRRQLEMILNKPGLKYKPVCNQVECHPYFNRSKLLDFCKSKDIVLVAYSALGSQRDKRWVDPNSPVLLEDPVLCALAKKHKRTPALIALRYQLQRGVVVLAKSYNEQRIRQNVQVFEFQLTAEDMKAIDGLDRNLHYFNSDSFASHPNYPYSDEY
Assay: AKR1C3-inhibitory activity assay (Coumberone to Coumberol fluorescence)
Type: biochemical
Settings: recombinant human AKR1C3, 10 μM NADPH, 0.3 μM Coumberone, 22° C., typically 90 min
Description: AKR1C3-Inhibitory Activity Assay
The AKR1C3-inhibitory activity of the substances of the present invention was measured in the AKR1C3 assay described in the paragraphs below.
Essentially, the enzyme activity is measured by quantification of the generation of Coumberol from Coumberone (Halim et al. J. AM. CHEM. SOC. 2008, 130:14123-14128 and Yee et al. Proc. Natl. Acad. Sci. USA 2006, 103:13304-13309). In this test, the increase of the highly fluorescent Coumberol by NADPH- (nicotinamide adenine dinucleotide phosphate)-dependent reduction of the non-fluorescent Coumberone by AKR1C3 was determined.
The enzyme used was recombinant human AKR1C3 (Aldo-keto reductase family 1 member C3; GenBank Accession No. NM_003739). This was expressed in E. coli as GST (glutathione S transferase) fusion protein and purified by glutathione Sepharose affinity chromatography. The GST was removed by digestion with thrombin and subsequent size exclusion chromatography (Dufort, I., Rheault, P., Huang, X F., Soucy, P., and Luu-The, V., Endocrinology 140, 568-574 (1999)).
For the assay, 50 nI of a 100-fold concentrated solution of the test substance in DMSO were pipetted into a black low-volume 384-well microtiter plate (Greiner Bio-One, Frickenhausen, Germany), 2.5 μl of a solution of AKR1C3 in assay buffer [50 mM potassium phosphate buffer pH 7, 1 mM DTT, 0.0022% (w/v) Pluronic F-127, 0.01% BSA (w/v) and protease inhibitor cocktail (Complete, EDTA-free Protease Inhibitor Cocktail from Roche)] were added and the mixture was incubated for 15 min to allow pre-binding of the substances to the enzyme prior to the enzyme reaction. The enzyme reaction was then started by addition of 2.5 μl of a solution of NADPH (20 μM→final concentration in 5 μl of assay volume is 10 μM) and Coumberone (0.6 μM→final concentration in 5 μl of assay volume is 0.3 μM) in assay buffer, and the resulting mixture was incubated at 22° C. for the reaction time of typically 90 min. The concentration of the AKR1C3 and the reaction time was adapted to the respective activity of the enzyme preparation and adjusted such that the assay was carried out in the linear range. Typical AKR1C3 concentrations were in the region of 1 nM. The reaction was stopped by addition of 2.5 μl of a stop solution consisting of 3 μM EM-1404 as inhibitor (U.S. Pat. No. 6,541,463) in 50 mM HEPES pH7.5 (3 μM EM-1404→final concentration in 7.5 μl of assay volume is 1 μM). The fluorescence of the Coumberole was then measured at 520 nm (excitation at 380 nm) using a suitable measuring instrument (Pherastar from BMG Labtechnologies). The intensity of the fluorescence was used as a measure of the amount of Coumberole formed and thus of the enzyme activity of AKR1C3. The data were normalized (enzyme reaction without inhibitor=0% inhibition; all other assay components, but no enzyme=100% inhibition).

SMILES	IC50
Cc1ccc(S(=O)(=O)N2CCN(C(=O)c3cnn[nH]3)CC2(C)C)cc1 [Example 6, {3,3-dimethyl-4-[(4-methylphenyl)sulfonyl]piperazin-1-yl}(1H-1,2,3-triazol-5-yl)methanone]	0.008 µM
CC1(C)CN(C(=O)c2cnn[nH]2)CCN1S(=O)(=O)c1ccc(F)cc1Cl [Example 9, {4-[(2-chloro-4-fluorophenyl)sulfonyl]-3,3-dimethylpiperazin-1-yl}(1H-1,2,3-triazol-5-yl)methanone]	0.011 µM
Cc1ccc(S(=O)(=O)N2C[C@@H](C)N(C(=O)c3c[nH]nn3)[C@@H](C)C2)cc1 [Example 3, {(2R,6S)-2,6-dimethyl-4-[(4-methylphenyl)sulfonyl]piperazin-1-yl}(1H-1,2,3-triazol-4-yl)methanone]	0.024 µM
C[C@@H]1CN(S(=O)(=O)c2ccc(C(F)(F)F)cc2)C[C@H](C)N1C(=O)c1c[nH]nn1 [Example 5, [(2R,6S)-2,6-dimethyl-4-{[4-(trifluoromethyl)phenyl]sulfonyl}piperazin-1-yl](1H-1,2,3-triazol-4-yl)methanone]	0.107 µM
CCc1ccc(S(=O)(=O)N2CCN(C(=O)c3cnn[nH]3)CC2(C)C)cc1 [Example 7, {4-[(4-ethylphenyl)sulfonyl]-3,3-dimethylpiperazin-1-yl}(1H-1,2,3-triazol-5-yl)methanone]	0.008 µM

Other lines, results leading:

IC50	SMILES
0.003 µM	C[C@@H]1CN(C(=O)c2cnn[nH]2)[C@@H](C)CN1S(=O)(=O)c1ccc(F)cc1F [Example 2, {(2S,5R)-4-[(2,4-difluorophenyl)sulfonyl]-2,5-dimethylpiperazin-1-yl}(1H-1,2,3-triazol-5-yl)methanone]
0.006 µM	Cc1ccc(S(=O)(=O)N2C[C@H](C)N(C(=O)c3cnn[nH]3)C[C@H]2C)cc1 [Example 1, {(2S,5R)-2,5-dimethyl-4-[(4-methylphenyl)sulfonyl]piperazin-1-yl}(1H-1,2,3-triazol-5-yl)methanone]
0.012 µM	C[C@@H]1CN(S(=O)(=O)c2ccc(F)cc2F)C[C@H](C)N1C(=O)c1c[nH]nn1 [Example 4, {(2R,6S)-4-[(2,4-difluorophenyl)sulfonyl]-2,6-dimethylpiperazin-1-yl}(1H-1,2,3-triazol-4-yl)methanone]
0.045 µM	CC1(C)CN(C(=O)c2cnn[nH]2)CCN1S(=O)(=O)c1ccc(F)cc1F [Example 8, {4-[(2,4-difluorophenyl)sulfonyl]-3,3-dimethylpiperazin-1-yl}(1H-1,2,3-triazol-5-yl)methanone]
